These results are taken from article PMC2867052 (Journal of contaminant hydrology, 2009).

Each structure is given as a SMILES string. Where two headings read alike, the source gives them in different places.

The format of data set [1] is physicochemical. To be noted: for Sherwood Number (Sh): calculated from initial dissolution rate coefficient; for Dissolution Rate Coeff. (kL): model-calibrated initial value.
Data set [2] is classed as physicochemical. To be noted: for Dissolution Rate Coeff. (kL): model-calibrated initial value.
For data set [3] the following is noted: 10% by weight HPCD.
[4] abbreviates: 1 Component - HPCD (10% by weight).
Where [5] appears, read: 3 Component - HPCD (10% by weight).
The mark [6] stands for this setting: single-component organic liquid.

Consider `CCCCc1ccccc1` [butylbenzene], for which the results for the “E-Normalized Rate Coeff. (kL/E)” value in data set [1] (3 Component - Water), in data set [2] (1 Component - HPCD) and in data set [2] (3 Component - HPCD) were 15 ± 11 h⁻¹, 16 ± 2 h⁻¹ and 15 ± 4 h⁻¹, respectively. In addition, the figures for the “Sherwood Number (Sh)” value in data set [1] (3 Component - Water), in data set [2] (setting [4]) and in data set [2] (setting [5]) were 0.6, 100 and 82, respectively. The “Dissolution Rate Coeff. (kL)” value amounted to 15 ± 11 h⁻¹ in data set [1] (3 Component - Water), 1902 ± 240 h⁻¹ in data set [2] (setting [4]) and 1900 ± 490 h⁻¹ in data set [2] (setting [5]).

For `Cc1ccccc1` [toluene, Toluene], the “E-Normalized Rate Coeff. (kL/E)” value in data set [1] (1 Component - Water) was 22 ± 5 h⁻¹; in data set [1] (3 Component - Water), 21 ± 4 h⁻¹; in data set [2] (1 Component - HPCD), 21 ± 6 h⁻¹; in data set [2] (3 Component - HPCD), 21 ± 4 h⁻¹. Also, the “Dissolution Rate Coeff. (kL)” value was 21 ± 4 h⁻¹ in data set [1] (3 Component - Water), 161 ± 44 h⁻¹ in data set [2] (setting [4]) and 165 ± 30 h⁻¹ in data set [2] (setting [5]). Besides, the “Sherwood Number (Sh)” value in data set [2] (setting [4]) and in data set [2] (setting [5]) was 6 each time. The “10% HPCD Enhancement Factor (E°)” value in data set [3] (setting [6]) is listed as 7.7.

For `CCc1ccccc1` [ethylbenzene], the “E-Normalized Rate Coeff. (kL/E)” value was 17 ± 3 h⁻¹ in data set [1] (3 Component - Water), 17 ± 3 h⁻¹ in data set [2] (1 Component - HPCD) and 18 ± 3 h⁻¹ in data set [2] (3 Component - HPCD). The entries for the “Sherwood Number (Sh)” value in data set [1] (3 Component - Water), in data set [2] (setting [4]) and in data set [2] (setting [5]) were 0.6, 15 and 14, respectively. Moreover, the “Dissolution Rate Coeff. (kL)” value stood at 17 ± 3 h⁻¹ in data set [1] (3 Component - Water), 342 ± 57 h⁻¹ in data set [2] (setting [4]) and 341 ± 57 h⁻¹ in data set [2] (setting [5]). Further, the “10% HPCD Enhancement Factor (E°)” value in data set [3] (setting [6]) came to 20; in data set [3] (three-component organic liquid (Tol-EB-BB)), 19.
